Test results published in patent US12146004B2, “Polymyxin compounds and uses thereof” (priority 2014, dated 2024).
In brackets after ≈: the same amount, converted by molar mass. Where two headings read alike, the source gives them in different places.

Experiments:
Type in all cases: cell-based
[1] = system: Acinetobacter baumannii
How it was run: (§1)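 MIC (μg/mL) by susceptibility testing against up to nine strains per species, including strains with elevated Polymyxin MICs and resistant isolates.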

[2] = system: Pseudomonas aeruginosa
How it was run: as §1

[3] = system: Klebsiella pneumoniae
How it was run: as §1

[4] = system: Escherichia coli
How it was run: as §1

`CCCCCC/C=C/c1ccc(C[C@H]2NC(=O)[C@H](CCN)NC(=O)[C@@H](NC(=O)[C@H](CN)NC(=O)[C@@H](NC(=O)C3CNCC(CC(C)C)C3)C(C)O)CCNC(=O)[C@H]([C@@H](C)O)NC(=O)[C@H](CCN)NC(=O)[C@H](CCN)NC(=O)[C@H](CC(C)C)NC2=O)cc1` (single isomer, unassigned; isomer 2) [Example 18, (trans-5-(isobutyl-piperidine)-3-carbonyl L-Thr-L-Dap-polymyxin [D-(4-(E)-oct-1-enyl)-Phe]-6]heptapeptide Isomer 2] was tested, and the “MIC A. baumanii 053” value [1] was 2 mg/L (≈ 1.63 µM), the “MIC A. baumanii 056” value [1] was 2 mg/L (≈ 1.63 µM) and the “MIC A. baumanii ATCC BAA-747” value [1] was 2 mg/L (≈ 1.63 µM). For the same compound, the “MIC P. aeruginosa 068” value [2] was 4 mg/L (≈ 3.26 µM), the “MIC P. aeruginosa 070” value [2] was 4 mg/L (≈ 3.26 µM) and the “MIC P. aeruginosa ATCC 27853” value [2] was 2 mg/L (≈ 1.63 µM). For the same compound, the “MIC K. pneumoniae 062” value [3] was 2 mg/L (≈ 1.63 µM), the “MIC K. pneumoniae 063” value [3] was 4 mg/L (≈ 3.26 µM) and the “MIC K. pneumoniae 064” value [3] was 4 mg/L (≈ 3.26 µM). For the same compound, the “MIC K. pneumoniae 065” value [3] was 2 mg/L (≈ 1.63 µM), the “MIC K. pneumoniae 066” value [3] was 2 mg/L (≈ 1.63 µM) and the “MIC K. pneumoniae 067” value [3] was 4 mg/L (≈ 3.26 µM). The “MIC K. pneumoniae ATCC 4352” value [3] was 2 mg/L (≈ 1.63 µM), the “MIC E. coli 058” value [4] was 2 mg/L (≈ 1.63 µM) and the “MIC E. coli 059” value [4] was 1 mg/L (≈ 0.815 µM). For the same compound, the “MIC E. coli 060” value [4] was 2 mg/L (≈ 1.63 µM), the “MIC E. coli 061” value [4] was 2 mg/L (≈ 1.63 µM) and the “MIC E. coli ATCC 25922” value [4] was 2 mg/L (≈ 1.63 µM).

With `CC(C)C[C@@H]1NC(=O)[C@@H](CC2CCCCC2)NC(=O)[C@H](CCN)NC(=O)[C@@H](NC(=O)[C@H](CCN)NC(=O)[C@@H](NC(=O)C(CCN)Cc2ccccc2)C(C)O)CCNC(=O)[C@H]([C@@H](C)O)NC(=O)[C@H](CCN)NC(=O)[C@H](CCN)NC1=O` (single isomer, unassigned; isomer 2) [Example 36, 4-amino-2-benzylbutanoyl-polymyxin [D-cyclohexylalanine]-6 nonapeptide. isomer 2] the “MIC A. baumanii ATCC BAA-747” value [1] was 1 mg/L (≈ 0.874 µM), the “MIC A. baumanii NCTC 13424” value [1] was 2 mg/L (≈ 1.75 µM) and the “MIC P. aeruginosa ATCC 27853” value [2] was 0.5 mg/L (≈ 0.437 µM). The “MIC P. aeruginosa CCUG 59347” value [2] was 0.5 mg/L (≈ 0.437 µM), the “MIC K. pneumoniae 065” value [3] was 2 mg/L (≈ 1.75 µM) and the “MIC K. pneumoniae ATCC 13882” value [3] was 0.125 mg/L (≈ 0.109 µM). For the same compound, the “MIC E. coli 058” value [4] was 8 mg/L (≈ 6.99 µM) and the “MIC E. coli ATCC 25922” value [4] was 0.125 mg/L (≈ 0.109 µM).

For `CC(C)C[C@@H]1NC(=O)[C@@H](CC2CCCCC2)NC(=O)[C@H](CCN)NC(=O)[C@@H](NC(=O)[C@H](CN)NC(=O)[C@@H](NC(=O)CC(CN)C2CCCCC2)C(C)O)CCNC(=O)[C@H]([C@@H](C)O)NC(=O)[C@H](CCN)NC(=O)[C@H](CCN)NC1=O` (single isomer, unassigned; isomer 2) [Example 43, 4-amino-3-cyclohexylbutanoyl L-Thr-L-Dap-polymyxin [D-cyclohexylalanine]-6 heptapeptide. isomer 2], the “MIC A. baumanii 053” value ([1]; strain 053) was 64 mg/L (≈ 57 µM), the “MIC A. baumanii 056” value ([1]; strain 056) was 32 mg/L (≈ 28.5 µM) and the “MIC A. baumanii ATCC BAA-747” value ([1]; strain ATCC BAA-747) was 0.125 mg/L (≈ 0.111 µM). The “MIC A. baumanii NCTC 13424” value ([1]; strain NCTC 13424) was 0.25 mg/L (≈ 0.223 µM), the “MIC P. aeruginosa 068” value ([2]; strain 068) was 2 mg/L (≈ 1.78 µM) and the “MIC P. aeruginosa 070” value ([2]; strain 070) was 2 mg/L (≈ 1.78 µM). For the same compound, the “MIC P. aeruginosa ATCC 27853” value ([2]; strain ATCC 27853) was 0.25 mg/L (≈ 0.223 µM), the “MIC P. aeruginosa CCUG 59347” value ([2]; strain CCUG 59347) was 0.25 mg/L (≈ 0.223 µM) and the “MIC K. pneumoniae 063” value ([3]; strain 063) was 16 mg/L (≈ 14.3 µM). For the same compound, the “MIC K. pneumoniae 065” value ([3]; strain 065) was 0.5 mg/L (≈ 0.445 µM), the “MIC K. pneumoniae ATCC 13882” value ([3]; strain ATCC 13882) was 0.25 mg/L (≈ 0.223 µM) and the “MIC E. coli 058” value ([4]; strain 058) was 1 mg/L (≈ 0.891 µM). For the same compound, the “MIC E. coli 061” value ([4]; strain 061) was 8 mg/L (≈ 7.13 µM), the “MIC E. coli ATCC 25922” value ([4]; strain ATCC 25922) was 0.25 mg/L (≈ 0.223 µM) and the “MIC E. coli NCTC 9001” value ([4]; strain NCTC 9001) was 0.06 mg/L (≈ 0.0535 µM).

In the case of `CC(C)C[C@@H]1NC(=O)[C@@H](CC2CCCCC2)NC(=O)[C@H](CCN)NC(=O)[C@@H](NC(=O)[C@H](CN)NC(=O)[C@@H](NC(=O)C(CCN)c2ccc(F)cc2)C(C)O)CCNC(=O)[C@H]([C@@H](C)O)NC(=O)[C@H](CCN)NC(=O)[C@H](CCN)NC1=O` (single isomer, unassigned; isomer 2) [Example 44, 4-amino-2-(4-fluorophenyl) butanoyl L-Thr-L-Dap-polymyxin [D-cyclohexylalanine]-6 heptapeptide. Isomer 2], the “MIC A. baumanii 056” value [1] is reported as 8 mg/L (≈ 7.05 µM), the “MIC A. baumanii ATCC BAA-747” value [1] is reported as 0.06 mg/L (≈ 0.0529 µM) and the “MIC A. baumanii NCTC 13424” value [1] is reported as 0.06 mg/L (≈ 0.0529 µM). For the same compound, the “MIC P. aeruginosa 068” value [2] was 2 mg/L (≈ 1.76 µM), the “MIC P. aeruginosa 070” value [2] was 1 mg/L (≈ 0.882 µM) and the “MIC P. aeruginosa ATCC 27853” value [2] was 0.25 mg/L (≈ 0.22 µM). For the same compound, the “MIC P. aeruginosa CCUG 59347” value [2] was 0.5 mg/L (≈ 0.441 µM), the “MIC K. pneumoniae 063” value [3] was 16 mg/L (≈ 14.1 µM) and the “MIC K. pneumoniae 065” value [3] was 0.5 mg/L (≈ 0.441 µM). The “MIC K. pneumoniae ATCC 4352” value [3] was 0.125 mg/L (≈ 0.11 µM), the “MIC K. pneumoniae ATCC 13882” value [3] was 0.25 mg/L (≈ 0.22 µM) and the “MIC E. coli 058” value [4] was 2 mg/L (≈ 1.76 µM). For the same compound, the “MIC E. coli 061” value [4] was 8 mg/L (≈ 7.05 µM), the “MIC E. coli ATCC 25922” value [4] was 0.25 mg/L (≈ 0.22 µM) and the “MIC E. coli NCTC 9001” value [4] was 0.03 mg/L (≈ 0.0264 µM).

In the case of `CC(C)C[C@@H]1NC(=O)[C@@H](CC2CCCCC2)NC(=O)[C@H](CCN)NC(=O)[C@@H](NC(=O)[C@H](CN)NC(=O)[C@@H](NC(=O)C(CCN)Cc2cccc(F)c2)C(C)O)CCNC(=O)[C@H]([C@@H](C)O)NC(=O)[C@H](CCN)NC(=O)[C@H](CCN)NC1=O` (single isomer, unassigned; isomer 2) [Example 45, 4-amino-2-(3-fluorobenzyl) butanoyl L-Thr-L-Dap-polymyxin [D-cyclohexylalanine]-6 heptapeptide. isomer 2], the “MIC A. baumanii 053” value [1] is reported as 64 mg/L (≈ 55.7 µM), the “MIC A. baumanii 056” value [1] is reported as 64 mg/L (≈ 55.7 µM) and the “MIC A. baumanii ATCC BAA-747” value [1] is reported as 0.25 mg/L (≈ 0.218 µM). For the same compound, the “MIC A. baumanii NCTC 13424” value [1] was 0.25 mg/L (≈ 0.218 µM), the “MIC P. aeruginosa 068” value [2] was 1 mg/L (≈ 0.871 µM) and the “MIC P. aeruginosa 070” value [2] was 1 mg/L (≈ 0.871 µM). The “MIC P. aeruginosa ATCC 27853” value [2] was 0.125 mg/L (≈ 0.109 µM), the “MIC P. aeruginosa CCUG 59347” value [2] was 0.25 mg/L (≈ 0.218 µM) and the “MIC K. pneumoniae 063” value [3] was 16 mg/L (≈ 13.9 µM). For the same compound, the “MIC K. pneumoniae 065” value [3] was 1 mg/L (≈ 0.871 µM), the “MIC K. pneumoniae ATCC 13882” value [3] was 0.25 mg/L (≈ 0.218 µM) and the “MIC E. coli 058” value [4] was 4 mg/L (≈ 3.48 µM). The “MIC E. coli 061” value [4] was 16 mg/L (≈ 13.9 µM), the “MIC E. coli ATCC 25922” value [4] was 0.25 mg/L (≈ 0.218 µM) and the “MIC E. coli NCTC 9001” value [4] was 0.06 mg/L (≈ 0.0522 µM).

For `CCC(C)CC(CCN)C(=O)N[C@H](C(=O)N[C@@H](CN)C(=O)N[C@H]1CCNC(=O)[C@H]([C@@H](C)O)NC(=O)[C@H](CCN)NC(=O)[C@H](CCN)NC(=O)[C@H](CC(C)C)NC(=O)[C@@H](CC2CCCCC2)NC(=O)[C@H](CCN)NC1=O)C(C)O` (single isomer, unassigned; isomer 2) [Example 47, 2-(2-aminoethyl)-4-methylhexanoyl L-Thr-L-Dap-polymyxin [D-cyclohexylalanine]-6 heptapeptide. Isomer 2], the “MIC A. baumanii ATCC BAA-747” value [1] was 0.125 mg/L (≈ 0.113 µM), the “MIC A. baumanii NCTC 13424” value [1] was 0.25 mg/L (≈ 0.225 µM) and the “MIC P. aeruginosa ATCC 27853” value [2] was 0.5 mg/L (≈ 0.45 µM). The “MIC P. aeruginosa CCUG 59347” value [2] was 0.5 mg/L (≈ 0.45 µM), the “MIC K. pneumoniae 065” value [3] was 0.5 mg/L (≈ 0.45 µM) and the “MIC K. pneumoniae ATCC 13882” value [3] was 0.5 mg/L (≈ 0.45 µM). The “MIC E. coli 058” value [4] was 4 mg/L (≈ 3.6 µM), the “MIC E. coli ATCC 25922” value [4] was 0.25 mg/L (≈ 0.225 µM) and the “MIC E. coli NCTC 9001” value [4] was 0.125 mg/L (≈ 0.113 µM).
